#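 Assay format: 96-well plates, 48-hour exposure. GI50: concentration for 50% inhibition of growth.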 The source made the active and inactive calls. Cut-off read from the data, not from the text of the source: active = GI50 up to about 1.1 µM and inactive = higher.
# Legend:
# Experiment in all cases: DTP human tumour cell line panel, 48 h
# [1] = system: HT-29
# [2] = system: HL-60
# [3] = system: DMS-273
# [4] = system: RPMI-8226
# [5] = system: OVCAR-4
# [6] = system: A498
# [7] = system: SK-MEL-5
# [8] = system: OVCAR-5
# [9] = system: OVCAR-8
# [10] = system: SF-268
# [11] = system: NCI-H460
# [12] = system: M14
# [13] = system: TK-10
# [14] = system: EKVX
# [15] = system: SK-MEL-2
# [16] = system: SK-MEL-28
# [17] = system: HCC 2998
# [18] = system: SF-295
# [19] = system: NCI-H522
# [20] = system: HOP-62
# [21] = system: DLD-1
# [22] = system: UACC-257
# [23] = system: ACHN
# [24] = system: SR
# [25] = system: SK-OV-3
# [26] = system: SW-620
# [27] = system: HCT-15
# [28] = system: LXFL 529
# [29] = system: M19-MEL
# [30] = system: UACC-62
# [31] = system: COLO 205
# [32] = system: U-251
# [33] = system: CAKI-1
# [34] = system: Malme-3M
# [35] = system: HCT-116
# [36] = system: SN12C
# [37] = system: OVCAR-3
# [38] = system: SNB-75
# [39] = system: UO-31
# [40] = system: IGROV-1
# [41] = system: LOX IMVI
# [42] = system: SNB-78
# [43] = system: SNB-19
# [44] = system: A549
# [45] = system: SF-539
# [46] = system: HOP-92
# [47] = system: NCI-H226
# [48] = system: DMS-114
# [49] = system: KM-20L2
# [50] = system: XF498
# [51] = system: KM12
# [52] = system: NCI-H23
# [53] = system: CCRF-CEM
# [54] = system: RXF 393
# [55] = system: MOLT-4
# [56] = system: 786-0
# [57] = system: K562
# [58] = system: RXF 631
structure (smiles),measurement,setting,value
CC1CC(C)C2OC2(C)C[C@H](C)C(=O)NC(C)C(=O)N(C)[C@H](Cc2c(Br)[nH]c3ccccc23)C(=O)N[C@@H](c2ccc(O)cc2)CC(=O)O1 (some centres undefined),GI50,[1],106 nM (active)
same,GI50,[2],72.3 nM (active)
same,GI50,[3],24.1 nM (active)
same,GI50,[4],35.5 nM (active)
same,GI50,[5],220 nM (active)
same,GI50,[6],522 nM (active)
same,GI50,[7],93.3 nM (active)
same,GI50,[8],824 nM (active)
same,GI50,[9],4890 nM (inactive)
same,GI50,[10],336 nM (active)
same,GI50,[11],38.8 nM (active)
same,GI50,[12],729 nM (active)
same,GI50,[13],741 nM (active)
same,GI50,[14],2020 nM (inactive)
same,GI50,[15],33 nM (active)
same,GI50,[16],839 nM (active)
same,GI50,[17],110 nM (active)
same,GI50,[18],1220 nM (inactive)
same,GI50,[19],50.4 nM (active)
same,GI50,[20],330 nM (active)
same,GI50,[21],3370 nM (inactive)
same,GI50,[22],418 nM (active)
same,GI50,[23],2160 nM (inactive)
same,GI50,[24],277 nM (active)
same,GI50,[25],433 nM (active)
same,GI50,[26],< 26.2 nM (active)
same,GI50,[27],39300 nM
same,GI50,[28],221 nM (active)
same,GI50,[29],161 nM (active)
same,GI50,[30],2500 nM (inactive)
same,GI50,[31],21.4 nM (active)
same,GI50,[32],40.4 nM (active)
same,GI50,[33],1090 nM (active)
same,GI50,[34],527 nM (active)
same,GI50,[35],39.6 nM (active)
same,GI50,[36],776 nM (active)
same,GI50,[37],490 nM (active)
same,GI50,[38],142 nM (active)
same,GI50,[39],10000 nM (inactive)
same,GI50,[40],272 nM (active)
same,GI50,[41],46.6 nM (active)
same,GI50,[42],309 nM (active)
same,GI50,[43],66.1 nM (active)
same,GI50,[44],280 nM (active)
same,GI50,[45],111 nM (active)
same,GI50,[46],352 nM (active)
same,GI50,[47],373 nM (active)
same,GI50,[48],34.8 nM (active)
same,GI50,[49],150 nM (active)
same,GI50,[50],838 nM (active)
same,GI50,[51],249 nM (active)
same,GI50,[52],902 nM (active)
same,GI50,[53],41.7 nM (active)
same,GI50,[54],1470 nM (inactive)
same,GI50,[55],1340 nM (inactive)
same,GI50,[56],1430 nM (inactive)
same,GI50,[57],703 nM (active)
same,GI50,[58],760 nM (active)
COc1ccc2nc3ccccc3c(NCCN(CCCl)CCCl)c2c1,GI50,[1],543 nM (active)
same,GI50,[2],206 nM (active)
same,GI50,[3],333 nM (active)
same,GI50,[5],1080 nM (active)
same,GI50,[6],2490 nM (inactive)
same,GI50,[8],643 nM (active)
same,GI50,[9],649 nM (active)
same,GI50,[10],783 nM (active)
same,GI50,[12],1030 nM (active)
same,GI50,[13],1760 nM (inactive)
same,GI50,[14],2350 nM (inactive)
same,GI50,[15],1810 nM (inactive)
same,GI50,[16],2360 nM (inactive)
same,GI50,[17],1280 nM (inactive)
same,GI50,[18],614 nM (active)
same,GI50,[19],348 nM (active)
same,GI50,[20],555 nM (active)
same,GI50,[21],738 nM (active)
same,GI50,[22],1300 nM (inactive)
same,GI50,[23],336 nM (active)
same,GI50,[24],32.1 nM (active)
same,GI50,[25],1480 nM (inactive)
same,GI50,[26],238 nM (active)
same,GI50,[28],466 nM (active)
same,GI50,[29],1270 nM (inactive)
same,GI50,[30],1000 nM (active)
same,GI50,[32],326 nM (active)
same,GI50,[33],251 nM (active)
same,GI50,[34],1510 nM (inactive)
same,GI50,[35],272 nM (active)
same,GI50,[36],658 nM (active)
same,GI50,[37],269 nM (active)
same,GI50,[38],1250 nM (inactive)
same,GI50,[39],1570 nM (inactive)
same,GI50,[40],1300 nM (inactive)
same,GI50,[42],769 nM (active)
same,GI50,[43],656 nM (active)
same,GI50,[44],771 nM (active)
same,GI50,[45],608 nM (active)
same,GI50,[46],476 nM (active)
same,GI50,[47],1000 nM (active)
same,GI50,[49],474 nM (active)
same,GI50,[50],497 nM (active)
same,GI50,[51],1340 nM (inactive)
same,GI50,[52],156 nM (active)
same,GI50,[53],144 nM (active)
same,GI50,[54],1660 nM (inactive)
same,GI50,[55],59.2 nM (active)
same,GI50,[56],330 nM (active)
same,GI50,[57],407 nM (active)
same,GI50,[58],455 nM (active)
